Measurements: US10238670B2, “9-aminomethyl minocycline compounds and methods of use thereof in urinary tract infection (UTI) treatment” (Paratek Pharmaceuticals, Inc., priority 2016, dated 2019)
Converted amounts (≈) assume the structure as drawn. Like-named read-outs stand apart in the source and are kept apart here.

Experiments:
K. pneumoniae FQS = assay: In vitro MIC, 2010 surveillance isolates; type: cell-based, Klebsiella pneumoniae; conditions: N=1561
Citrobacter spp. = assay: In vitro MIC, 2010 surveillance isolates; type: cell-based; conditions: N=253
Acinetobacter = assay: In vitro MIC, 2010 surveillance isolates; type: cell-based; conditions: N=952
P. aeruginosa = assay: In vitro MIC (Data from CMI 07); type: cell-based; conditions: N=22
[1] = system: E. coli (ATCC 25922) biofilm; assay: MBEC assay, activity against established 24 hour biofilm; type: cell-based, Escherichia coli; conditions: 24 hours challenge
Procedure: (§1) The MBEC™ assay (formerly the Calgary biofilm device; Innovotech Inc., Canada) is a well-established high throughput assay for assessment of anti-biofilm activity of test agents in a 96-well format. Within this assay, the biofilm is formed on the plastic pegs of the plate lid. After inoculated media is introduced to the wells of the 96-well plate, the plate is placed in a shaking incubator to generate the necessary shear force for biofilm growth on the pegs. Following a suitable incubation time, the individual biofilms can be treated with varying concentrations of test agents (challenge plate). After the desired treatment time, the remaining biofilm-associated bacteria are retrieved from the pegs through sonication (recovery plate). Serial dilution and/or plating of the recovered bacterial suspension allow for the quantification of test agents' efficacy against pre-formed biofilms. Additionally, readout of the challenge plate from the biofilm treatment can be used to determine MIC values of test agents. The absence of growth in the recovery plate indicates complete biofilm eradication and the lowest concentration of a test agent that achieves this is designated as the minimum biofilm eradication concentration (MBEC). The MBEC™ assay is also amenable to assess potential synergistic effects of combination treatments, as well as efficacy of test agents in inhibiting or inducing biofilm formation. The MBEC™ plates were inoculated with 10^7 CFU/mL of stationary phase E. coli (ATCC 25922) and incubated for 24 hours to allow formation of a robust biofilm. The individual biofilms formed on the pegs were challenged with varying concentrations of antibiotics for 24 hours, followed by recovery of the surviving bacteria. Bacterial enumeration was performed using a Most Probable Number (MPN) assay (Sutton, Journal of Validation Technology 16 (3): 35-38, 2010, incorporated herein by reference) in a 96-well format.

[2] = system: E. coli (ATCC 25922) biofilm; assay: MBEC assay, inhibition of biofilm formation; type: cell-based, Escherichia coli
Procedure: as §1, with “formation.” for “formation. The MBEC™ plates were inoculated with 10^7 CFU/mL of stationary phase E. coli (ATCC 25922) and incubated for 24 hours to allow formation of a robust biofilm. The individual biofilms formed on the pegs were challenged with varying concentrations of antibiotics for 24 hours, followed by recovery of the surviving bacteria. Bacterial enumeration was performed using a Most Probable Number (MPN) assay (Sutton, Journal of Validation Technology 16 (3): 35-38, 2010, incorporated herein by reference) in a 96-well format.”
The MBEC™ plates were inoculated with either 10^5 CFU/mL (low inoculum) or 10^7 CFU/mL (high inoculum) of stationary phase E. coli (ATCC 25922) with simultaneous addition of antibiotics to evaluate the progression of biofilm formation under antibiotic challenge. After 24 hour incubation, the bacteria were recovered and enumerated (as above). FIG. 6. […] FIG. 7.

[3] = system: E. coli (Carbapenem Resistant); assay: Broth microdilution MIC against UTI pathogens (Example 4); type: cell-based; conditions: Escherichia coli; 25 isolates
Procedure: (§2) Antimicrobial activities of Compound 1 against a variety of common pathogens found in UTI were determined using a standard broth microdilution method (CLSI in Methods for Dilution Antimicrobial Susceptibility Tests for Bacteria That Grow Aerobically, Approved Standard M7-A8, Clinical and Laboratory Standards Institute, Wayne, Pa. (USA), 2011, incorporated herein by reference) with slight modifications.

E. coli (ESBL phenotype) = assay: as above; type: cell-based; conditions: Escherichia coli; 2,743 isolates
Procedure: as §2

[4] = system: E. coli (non-ESBL phenotype); assay: as above; type: cell-based; conditions: Escherichia coli; 10,696 isolates
Procedure: as §2

[5] = In vitro activity at pH 6.0 in media; type: cell-based
protein = conditions: cited from earlier work

## CN(C)c1cc(CNCC(C)(C)C)c(O)c2c1C[C@H]1C[C@H]3[C@H](N(C)C)C(O)=C(C(N)=O)C(=O)[C@@]3(O)C(O)=C1C2=O [Compound 1, 9-[(2,2-dimethyl-propylamino)-methyl]-minocycline]
K. pneumoniae FQS; MIC 1 μg/ml
  Cumulative % Inhibition at MIC: 29.6%
K. pneumoniae FQS; MIC 2 μg/ml
  Cumulative % Inhibition at MIC: 79.3%
K. pneumoniae FQS; MIC 4 μg/ml
  Cumulative % Inhibition at MIC: 92.5%
K. pneumoniae FQS; MIC 8 μg/ml
  Cumulative % Inhibition at MIC: 95.9%
K. pneumoniae FQS; MIC 16 μg/ml
  Cumulative % Inhibition at MIC: 98.5%
K. pneumoniae FQS; MIC ≤0.5 μg/ml, listed as head image P00011
  Cumulative % Inhibition at MIC: 2.4%
K. pneumoniae FQS; MIC ≥32 μg/ml
  Cumulative % Inhibition at MIC: 100%
Citrobacter spp.; MIC 1 μg/ml
  Cumulative % Inhibition at MIC: 44.7%
Citrobacter spp.; MIC 2 μg/ml
  Cumulative % Inhibition at MIC: 79.1%
Citrobacter spp.; MIC 4 μg/ml
  Cumulative % Inhibition at MIC: 93.3%
Citrobacter spp.; MIC 8 μg/ml
  Cumulative % Inhibition at MIC: 97.6%
Citrobacter spp.; MIC 16 μg/ml
  Cumulative % Inhibition at MIC: 100%
Citrobacter spp.; MIC ≤0.5 μg/ml, listed as head image P00016
  Cumulative % Inhibition at MIC: 14.6%
Acinetobacter; MIC 1 μg/ml
  Cumulative % Inhibition at MIC: 44.1%
Acinetobacter; MIC 2 μg/ml
  Cumulative % Inhibition at MIC: 73.1%
Acinetobacter; MIC 4 μg/ml
  Cumulative % Inhibition at MIC: 93.5%
Acinetobacter; MIC 8 μg/ml
  Cumulative % Inhibition at MIC: 98.5%
Acinetobacter; MIC 16 μg/ml
  Cumulative % Inhibition at MIC: 99.5%
Acinetobacter; MIC ≤0.5 μg/ml, listed as head image P00018
  Cumulative % Inhibition at MIC: 31.1%
Acinetobacter; MIC ≥32 μg/ml
  Cumulative % Inhibition at MIC: 100%
P. aeruginosa; MIC 1 μg/ml
  Cumulative % Inhibition at MIC: 0%
P. aeruginosa; MIC 2 μg/ml
  Cumulative % Inhibition at MIC: 0%
P. aeruginosa; MIC 4 μg/ml
  Cumulative % Inhibition at MIC: 0%
P. aeruginosa; MIC 8 μg/ml
  Cumulative % Inhibition at MIC: 0%
P. aeruginosa; MIC 16 μg/ml
  Cumulative % Inhibition at MIC: 9.1%
P. aeruginosa; MIC ≤0.5 μg/ml, Data from CMI 07
  Cumulative % Inhibition at MIC: 0%
P. aeruginosa; MIC ≥32 μg/ml
  Cumulative % Inhibition at MIC: 100%
[1]; at around MIC
  reduction of total biofilm-associated bacteria: 1-2 log units
[1]; at higher concentrations
  reduction in bioburden: 4-5 log units
[2]; 0.183 μg/mL (approx. 15% of MIC)
  less bioburden of biofilm compared to control: approx. 2 log units
[2]; 0.743 μg/mL, 24 hour incubation
  lower total bioburden of biofilm vs controls: 3-4 log units
[2]; 0.74 p g/mL, high and low inoculum conditions, respectively
  reduction of mean biofilm formation compared to controls: 3 to 4 log units
[2]; all doses above the MIC
  inhibition of biofilm formation: strongly inhibits biofilm formation
[2]; sub-MIC doses
  induction of biofilm formation: fail to induce biofilm formation
[3]
  MIC50: 1 µg/mL (≈ 1.8 µM)
  MIC90: 4 µg/mL (≈ 7.19 µM)
E. coli (ESBL phenotype)
  MIC50: 1 µg/mL (≈ 1.8 µM)
  MIC90: 4 µg/mL (≈ 7.19 µM)
[4]
  MIC50: 0.5 µg/mL (≈ 0.898 µM)
  MIC90: 2 µg/mL (≈ 3.59 µM)
[5]
  in vitro activity at pH 6.0 in media: somewhat decreased

## CN(C)c1cc(NC(=O)CNC(C)(C)C)c(O)c2c1C[C@H]1C[C@H]3[C@H](N(C)C)C(O)=C(C(N)=O)C(=O)[C@@]3(O)C(O)=C1C2=O [Tigecycline]
protein; 0.1 μg/mL, ultracentrifugation
  protein binding: 73%
protein; 0.1 μg/mL, ultrafiltration
  protein binding: 71%
protein; 1.0 μg/mL, ultracentrifugation
  protein binding: 79%
protein; 1.0 μg/mL, ultrafiltration
  protein binding: 87%
protein; Concentration 100 ng/mL
  protein binding, Ultracentrifugation: 73%
  protein binding, Ultrafiltration: 71%
protein; Concentration 1,000 ng/mL
  protein binding, Ultracentrifugation: 79%
  protein binding, Ultrafiltration: 87%
